Laboratory results taken from patent US20250108038A1 (priority 2023, published 2025).
Where “and” joins values, the source holds several entries; their conditions need not be identical. Equal entries are not always repeated.

System: Long Evans rats
Test: Behavioral satiety sequence (BSS)
Assay type: in vivo, Long Evans rat
Text: The Behavioural Satiety Sequence (BSS) is a technique used to evaluate physiological satiety. It is based on the expression of a sequence of behaviors including eating, grooming, locomotor activity, followed by resting, which are typically observed in rodents post-ingestion (Halford et al, 1998, Pharmacology Biochemistry and Behaviour. 61(2): 159-168). The BSS is a widely used model for determining the effects of novel pharmaceuticals on food intake and measures of satiety in rodents (Oliveira et al, 2011, Revista de Nutrição. 24(4) 619-628), and to discriminate the cause of reduced food intake following pharmacological manipulation. For example, treatments that may reduce food intake by non-specific mechanisms, such as immobility, malaise, and taste adulteration, will disrupt this sequence (Halford et al, 1998, Pharmacology Biochemistry and Behaviour. 61(2): 159-168).
Specifically, 12 male Long-Evans rats were food-deprived for 22 h with a 2 h feeding period each day. Rats were trained to consume daily food during the 2 h period over 25 days. The testing phase was initiated once the rats consistently consumed 16-18 g of food per day with ≤10% variance in amount of feed consumed. Feeding took place in designated individual boxes in a quiet room separate from the housing room. Continuous remote monitoring via video camera during feeding was used to assess the BSS. Food consumption was measured by weighing the total available food before and after the 2 h feeding window, correcting for spillage. Lorcaserin (1 mg/kg) was included as a reference control (Higgins et al, 2011, Neuropsychopharmacology. 37(5): 1177-1191). Subjects were tested using a repeated-measures, Latin square design with 2-3 days wash-out between treatment cycles.
On scheduled test days, animals were monitored remotely via video camera during the feeding access period. The occurrence of four mutually exclusive behaviors (eating/drinking, grooming, active, rest) were individually scored. Over the 2 h feeding period, behaviors were assessed every 30 seconds. Scores were compiled into 23 5 min timebins (timebin 24 was removed due to early removal of animals) and the frequency of each behavior within each timebin was calculated to determine a temporal frequency of each measure (Rodgers et al, 2010, Pharmacology Biochemistry and Behaviour. 97: 3-14). Percentage time was plotted for each behavioral sequence in each timebin to compare between treatment groups (Higgins et al, 2011, Neuropsychopharmacology. 37(5): 1177-1191).

[1] = Compound I-19 0.3 mg/kg, raw score per animal (LT-1 to LT-12)
[2] = Compound I-19 1 mg/kg i.p., AVG of the group
[3] = Compound I-19 1 mg/kg i.p., raw score per animal
[4] = Compound I-19 1 mg/kg, AVG of 12 animals

Clc1ccc(C2(OCC3OCCO3)c3ccccc3C3=NCCN32)cc1 (stereo not drawn) [Compound I-19]
BSS scoring G (grooming), Time Bin 22 (105-110 TOTAL) [1]: 0 (11×) and 1
BSS scoring G (grooming), Time Bin 23 (110-115 TOTAL) [1]: 1 (4×) and 0 (7×) and 2
BSS scoring G (grooming), Time Bin 24 (115-120 TOTAL) [1]: 0 (7×) and 1 (5×)
BSS scoring R (resting), Time Bin 19 (90-95 TOTAL) [1]: 1 (5×) and 0 (5×) and 2 and 6
BSS scoring R (resting), Time Bin 20 (95-100 TOTAL) [1]: 0 (6×) and 1 (3×) and 4 and 2 (2×)
BSS scoring R (resting), Time Bin 21 (100-105 TOTAL) [1]: 0 (5×) and 1 (2×) and 3 (3×) and 2 and 10
BSS scoring R (resting), Time Bin 22 (105-110 TOTAL) [1]: 0 (6×) and 4 and 10 and 6 and 1 and 2 (2×)
BSS scoring R (resting), Time Bin 23 (110-115 TOTAL) [1]: 0 (7×) and 3 and 6 (2×) and 2 (2×)
BSS scoring R (resting), Time Bin 24 (115-120 TOTAL) [1]: 0 (7×) and 10 and 6 and 7 and 1 (2×)
BSS scoring A (active), Time Bin 1 (0-5 TOTAL), AVG [2]: 0.11
BSS scoring A (active), Time Bin 2 (5-10 TOTAL), AVG [2]: 0.04
BSS scoring A (active), Time Bin 3 (10-15 TOTAL), AVG [2]: 0.07
BSS scoring A (active), Time Bin 4 (15-20 TOTAL), AVG [2]: 0.02
BSS scoring A (active), Time Bin 5 (20-25 TOTAL), AVG [2]: 0.10
BSS scoring A (active), Time Bin 6 (25-30 TOTAL), AVG [2]: 0.17
BSS scoring E (eating/drinking), Time Bin 1 (0-5 TOTAL), AVG [2]: 0.88
BSS scoring E (eating/drinking), Time Bin 2 (5-10 TOTAL), AVG [2]: 0.88
BSS scoring E (eating/drinking), Time Bin 3 (10-15 TOTAL), AVG [2]: 0.88
BSS scoring E (eating/drinking), Time Bin 4 (15-20 TOTAL), AVG [2]: 0.93
BSS scoring E (eating/drinking), Time Bin 5 (20-25 TOTAL), AVG [2]: 0.83
BSS scoring E (eating/drinking), Time Bin 6 (25-30 TOTAL), AVG [2]: 0.80
BSS scoring G (grooming), Time Bin 1 (0-5 TOTAL), AVG [2]: 0.02
BSS scoring G (grooming), Time Bin 2 (5-10 TOTAL), AVG [2]: 0.07
BSS scoring G (grooming), Time Bin 3 (10-15 TOTAL), AVG [2]: 0.03
BSS scoring G (grooming), Time Bin 4 (15-20 TOTAL), AVG [2]: 0.03
BSS scoring G (grooming), Time Bin 5 (20-25 TOTAL), AVG [2]: 0.03
BSS scoring G (grooming), Time Bin 6 (25-30 TOTAL), AVG [2]: 0.01
BSS scoring R (resting), Time Bin 1 (0-5 TOTAL), AVG [2]: 0.00
BSS scoring R (resting), Time Bin 2 (5-10 TOTAL), AVG [2]: 0.01
BSS scoring R (resting), Time Bin 3 (10-15 TOTAL), AVG [2]: 0.02
BSS scoring R (resting), Time Bin 4 (15-20 TOTAL), AVG [2]: 0.03
BSS scoring R (resting), Time Bin 5 (20-25 TOTAL), AVG [2]: 0.03
BSS scoring R (resting), Time Bin 6 (25-30 TOTAL), AVG [2]: 0.03
BSS scoring A (active), Time Bin 1 (0-5 TOTAL) [3]: 0 (3×) and 1 (5×) and 2 (4×)
BSS scoring A (active), Time Bin 2 (5-10 TOTAL) [3]: 0 (8×) and 2 and 1 (3×)
BSS scoring A (active), Time Bin 3 (10-15 TOTAL) [3]: 0 (4×) and 1 (8×)
BSS scoring A (active), Time Bin 4 (15-20 TOTAL) [3]: 0 (10×) and 1 (2×)
BSS scoring A (active), Time Bin 5 (20-25 TOTAL) [3]: 2 (2×) and 0 (5×) and 1 (4×) and 4
BSS scoring A (active), Time Bin 6 (25-30 TOTAL) [3]: 2 (3×) and 0 (5×) and 7 and 3 (2×) and 1
BSS scoring E (eating/drinking), Time Bin 1 (0-5 TOTAL) [3]: 10 (3×) and 9 (4×) and 7 and 8 (4×)
BSS scoring E (eating/drinking), Time Bin 2 (5-10 TOTAL) [3]: 10 (4×) and 8 (4×) and 9 (3×) and 7
BSS scoring E (eating/drinking), Time Bin 3 (10-15 TOTAL) [3]: 10 (3×) and 9 (5×) and 8 (3×) and 7
BSS scoring E (eating/drinking), Time Bin 4 (15-20 TOTAL) [3]: 10 (5×) and 9 (6×) and 8
BSS scoring E (eating/drinking), Time Bin 5 (20-25 TOTAL) [3]: 7 (2×) and 10 (3×) and 9 (4×) and 8 (2×) and 4
BSS scoring E (eating/drinking), Time Bin 6 (25-30 TOTAL) [3]: 6 and 10 (5×) and 1 and 7 (2×) and 9 and 8 (2×)
BSS scoring G (grooming), Time Bin 1 (0-5 TOTAL) [3]: 0 (10×) and 1 (2×)
BSS scoring G (grooming), Time Bin 2 (5-10 TOTAL) [3]: 0 (6×) and 2 (2×) and 1 (4×)
BSS scoring G (grooming), Time Bin 3 (10-15 TOTAL) [3]: 0 (9×) and 1 (2×) and 2
BSS scoring G (grooming), Time Bin 4 (15-20 TOTAL) [3]: 0 (9×) and 1 (3×)
BSS scoring G (grooming), Time Bin 5 (20-25 TOTAL) [3]: 1 (4×) and 0 (8×)
BSS scoring G (grooming), Time Bin 6 (25-30 TOTAL) [3]: 0 (11×) and 1
BSS scoring R (resting), Time Bin 1 (0-5 TOTAL) [3]: 0
BSS scoring R (resting), Time Bin 2 (5-10 TOTAL) [3]: 0 (11×) and 1
BSS scoring R (resting), Time Bin 3 (10-15 TOTAL) [3]: 0 (10×) and 1 (2×)
BSS scoring R (resting), Time Bin 4 (15-20 TOTAL) [3]: 0 (9×) and 1 (3×)
BSS scoring R (resting), Time Bin 5 (20-25 TOTAL) [3]: 0 (9×) and 1 (2×) and 2
BSS scoring R (resting), Time Bin 6 (25-30 TOTAL) [3]: 2 and 0 (10×) and 1
BSS scoring A (active), Time Bin 13 (60-65 TOTAL), AVG [4]: 0.09
BSS scoring A (active), Time Bin 14 (65-70 TOTAL), AVG [4]: 0.13
BSS scoring A (active), Time Bin 15 (70-75 TOTAL), AVG [4]: 0.17
BSS scoring A (active), Time Bin 16 (75-80 TOTAL), AVG [4]: 0.16
BSS scoring A (active), Time Bin 17 (80-85 TOTAL), AVG [4]: 0.18
BSS scoring A (active), Time Bin 18 (85-90 TOTAL), AVG [4]: 0.12
BSS scoring E (eating/drinking), Time Bin 13 (60-65 TOTAL), AVG [4]: 0.73
BSS scoring E (eating/drinking), Time Bin 14 (65-70 TOTAL), AVG [4]: 0.73
BSS scoring E (eating/drinking), Time Bin 15 (70-75 TOTAL), AVG [4]: 0.65
BSS scoring E (eating/drinking), Time Bin 16 (75-80 TOTAL), AVG [4]: 0.64
BSS scoring E (eating/drinking), Time Bin 17 (80-85 TOTAL), AVG [4]: 0.68
BSS scoring E (eating/drinking), Time Bin 18 (85-90 TOTAL), AVG [4]: 0.54
BSS scoring G (grooming), Time Bin 13 (60-65 TOTAL), AVG [4]: 0.06
BSS scoring G (grooming), Time Bin 14 (65-70 TOTAL), AVG [4]: 0.03
BSS scoring G (grooming), Time Bin 15 (70-75 TOTAL), AVG [4]: 0.05
BSS scoring G (grooming), Time Bin 16 (75-80 TOTAL), AVG [4]: 0.03
BSS scoring G (grooming), Time Bin 17 (80-85 TOTAL), AVG [4]: 0.01
BSS scoring G (grooming), Time Bin 18 (85-90 TOTAL), AVG [4]: 0.03
